From patent US9365608B2, “Method for treating diabetes” (Ohr Pharmaceutical, Inc., priority 2007, dated 2016)
Entries after “also recorded” stand apart in the source; their conditions may differ.

Tests used:
Db/db (Lepr^db) mouse [1] = experiment: Fasting blood glucose in the diabetic Db/db mouse; assay type: in vivo; settings: Db/db mice; for % Reduction in FBG: 5 or 10 mg/kg ip every 3 days x4 doses, study day 14 after overnight fast, vs saline; for Reduction of FBG levels compared to saline control (in words): study day 14
Experimental: (§1) To determine in vivo efficacy of the steroid analogues a Db/db (Lepr^db) in mouse model was used. Db/db mice are extensively used for screening of antidiabetic agents. Db/db mice were treated with either saline or 5 or 10 mg/kg steroid analogue every 3 days for a total of 4 doses via ip injection. Body weight, glucose tolerance and fasting blood glucose levels were measured for each group during the study. Each group had at least an N of 4 animals. All reagents and lab animals are commercially available.
On study day 13, all animal groups were fasted overnight. On study day 14, 25 μL of whole blood was collected and analyzed for the glucose level (mg/dL) using a glucose analyzer.

[2] = previously described in US patents; cited from earlier work
Db/db (Lepr^db) mouse [3] = experiment: Body weight change in the diabetic Db/db mouse; assay type: in vivo; settings: Db/db mice, 5 or 10 mg/kg ip every 3 days x4; for % Change in Body Weight: vs body weight on study day 0
Experimental: as §1
Starting at study day 0, body weight measurements were taken every day for each group for up to 30 days. Percent change in body weight was calculated as the fractional response of body weight on study day X over the original body weight on study day 0.

full length TCPTP = biological target: T1, full length TCPTP (Homo sapiens, UniProt P17706); experiment: Inhibition of TCPTP by steroid analogues (pNPP hydrolysis); assay type: biochemical; settings: 200 μM inhibitor; pNPP substrate
T1 construct: except full length TCPTP was used as the enzyme
T1 sequence (P17706 1-415): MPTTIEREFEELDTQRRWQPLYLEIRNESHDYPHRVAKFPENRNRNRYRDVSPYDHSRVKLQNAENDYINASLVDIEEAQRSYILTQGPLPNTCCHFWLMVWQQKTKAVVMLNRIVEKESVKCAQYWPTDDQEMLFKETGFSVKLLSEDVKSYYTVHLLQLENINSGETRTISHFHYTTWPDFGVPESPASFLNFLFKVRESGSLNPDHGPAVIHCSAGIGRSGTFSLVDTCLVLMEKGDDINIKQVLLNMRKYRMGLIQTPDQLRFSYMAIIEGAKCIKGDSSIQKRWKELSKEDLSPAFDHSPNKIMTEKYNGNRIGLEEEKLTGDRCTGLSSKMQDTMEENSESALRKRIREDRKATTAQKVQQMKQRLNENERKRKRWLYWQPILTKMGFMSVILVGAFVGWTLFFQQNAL
Experimental: The steroid analogues were tested for inhibition against the commercially available full length tyrosine phosphatase PTP1B. The ability of each analogue to inhibit the activity of PTP1B was measured in the presence of 10 μM of the steroid analogue. The assay uses para-nitro-phenyl phosphate (pNPP), a non-specific substrate to assess phosphatase activity. Phosphatase activity was based on the ability of PTP 1B to catalyze the hydrolysis of pNPP to p-nitrophenol (pNP).
The steroid analogues were also tested for their ability to inhibit the tyrosine phosphatase TCPTP as an indication of their potential toxicity by the inhibition of the immune response. The TCPTP inhibition assay was done in the same manner as the PTP1B assay except full length TCPTP was used as the enzyme and the inhibitor was at a concentration of 200 μM. The results of the TCPTP inhibition assays are shown in Table 1, column D and show three compounds that inhibit TCPTP less than 50% even at a 20 fold greater concentration.

Db/db (Lepr^db) mouse [4] = experiment: Oral glucose tolerance test (OGTT) in the diabetic Db/db mouse; assay type: in vivo; settings: for % Reduction in OGTT Above Baseline AUC / Reduction in ABAUC compared to saline control (in words): Db/db mice; for % Reduction in OGTT Above Baseline AUC: 5 or 10 mg/kg ip every 3 days x4, day 14, oral glucose 1.5 g/kg, 0-120 min, vs saline; for Reduction in ABAUC compared to saline control (in words): OGTT study day 14, p<0.05; for Response in glucose tolerance test vs saline treated controls (FIG. 3 legend): legend says ob/ob mice
Experimental: as §1
Also on study day 14, an OGTT was performed to assess glucose tolerance. At time 0, an oral glucose challenge (1.5 g/kg) was administered by oral gavage. At timepoints 0, 15, 30, 60, 90, 120 min post glucose load, 25 μl of whole blood was withdrawn from the tail vein of the animal and the glucose level was measured using a glucose analyzer. The glucose concentration vs time was plotted (FIG. 2). Above baseline area under the curve (ABAUC) of the glucose excursion time curve was determined using trapezoidal rule analyses.

[5] = tested on: Insulin Receptor β (IR-β) in the hypothalamus; experiment: Phosphorylation of IR-β in the rat hypothalamus (IP / anti-pTyr western blot); assay type: in vivo; settings: male SD rats, 10 mg/kg i.p. Day 0; insulin 100 U/kg i.p. Day 1; 15 or 30 min post-dose; listed as MSI-1436, 10 mg/kg
Experimental: Male SD rats were divided into 8 groups with 4 rats per group. All rats were fed ad libitum normal rodent chow and regular tap water. On Day 0, rats were dosed via intraperitoneal (i.p.) injection with 10 mg/kg MSI-1436 or 0.9% saline. Rats were fasted overnight from Day 0 to Day 1. On Day 1, animals were dosed i.p. with 0.9% saline or 100 U/kg of insulin. At 15 or 30 minutes post-dose (Day 1), animals were sacrificed and the hypothalamuses were harvested, transferred to 1.5 mL eppendorf tubes, and frozen in liquid nitrogen. Samples were stored at −80° C. until further analysis. Hypothalamuses were pooled (3-4 per group) and homogenized in 2-mL Wheaton vials and Dounce homogenizers in 1 mL of tissue extraction reagent plus phosphatase and protease inhibitors. Lysates were centrifuged for 10 minutes at 4° C. (14,000 rpm) and the supernatants were transferred to new 1.5 mL eppendorf tubes. Lysates (500 μg) were immunoprecipitated for Insulin Receptor β overnight at 4° C. The samples were then bound to Protein A according to standard protocols for 4 hours at 4° C. […]
500 μg of total protein from each sample was loaded onto a 1.5 mm 4-12% Bis-Tris Novex gel and run at 175V for approximately 1 hr in 1×MOPS buffer. […] The ratio of the pTyr-IRβ band to the IRβ band was computed in Excel and the fold change in IR phosphorylation determined. […]

[6] = biological target: T2, full length tyrosine phosphatase PTP1B (Homo sapiens, UniProt P18031); experiment: Inhibition of PTP1B by steroid analogues (pNPP hydrolysis, absorbance 405 nm); assay type: biochemical; settings: read-out: PTP1B Inhibition (5 μM)
T2 construct: commercially available full length tyrosine phosphatase PTP1B; purchased
T2 sequence (P18031 1-435): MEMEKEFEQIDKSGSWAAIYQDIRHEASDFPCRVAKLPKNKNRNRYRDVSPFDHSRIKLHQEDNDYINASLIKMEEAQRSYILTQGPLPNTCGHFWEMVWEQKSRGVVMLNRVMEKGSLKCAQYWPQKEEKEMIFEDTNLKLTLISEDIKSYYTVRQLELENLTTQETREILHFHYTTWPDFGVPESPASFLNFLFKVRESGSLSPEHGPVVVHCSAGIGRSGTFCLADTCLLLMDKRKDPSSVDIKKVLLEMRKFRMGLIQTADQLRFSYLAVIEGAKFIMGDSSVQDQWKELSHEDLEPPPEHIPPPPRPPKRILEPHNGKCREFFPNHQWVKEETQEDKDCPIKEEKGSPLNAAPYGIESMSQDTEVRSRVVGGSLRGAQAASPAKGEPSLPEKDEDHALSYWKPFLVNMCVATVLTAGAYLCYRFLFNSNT
Experimental: The steroid analogues were tested for inhibition against the commercially available full length tyrosine phosphatase PTP1B. […] The assay uses para-nitro-phenyl phosphate (pNPP), a non-specific substrate to assess phosphatase activity. Phosphatase activity was based on the ability of PTP 1B to catalyze the hydrolysis of pNPP to p-nitrophenol (pNP).

SMILES: CC(C)[C@@H](CC[C@@H](C)[C@H]1CCC2C3C(CC[C@@]21C)[C@@]1(C)CC[C@H](NCCCNCCCCNCCCN)C[C@@H]1C[C@H]3O)OS(=O)(=O)O (stereo partly drawn) [Compound 1436]
- % Reduction in FBG (Db/db (Lepr^db) mouse [1]): 64%
- Reduction of FBG levels compared to saline control (in words) (Db/db (Lepr^db) mouse [1]): significant reduction
- Weight gain and appetite in animal models [2]: inhibit weight gain and suppress appetite
- % Change in Body Weight (Db/db (Lepr^db) mouse [3]): −8%
- inhibition at 200 µM (full length TCPTP): 0%
- % Reduction in OGTT Above Baseline AUC (Db/db (Lepr^db) mouse [4]): 83%
- Reduction in ABAUC compared to saline control (in words) (Db/db (Lepr^db) mouse [4]): significant reduction
- Amount of phospho-Tyrosine on insulin stimulated IR-β in the hypothalamus (fold change, pTyr-IRβ/IRβ) [5]: can increase the level; also recorded: nearly doubles

SMILES: CNCCNC(C)[C@H]1CCC2C3CC=C4CC(O)CC[C@]4(C)C3CC[C@@]21C (stereo partly drawn) [Compound 2498]
- inhibition at 5 µM [6]: 13%

SMILES: C[C@H](CCS(=O)(=O)O)[C@H]1CCC2C3CC[C@H]4C[C@@H](NCCCNCCCCN)CC[C@]4(C)C3CC[C@@]21C (stereo partly drawn) [Compound 1370]
- inhibition at 200 µM (full length TCPTP): 44%

SMILES: COC(=O)CC[C@@H](C)[C@H]1CCC2C3C[C@@H](O)[C@H]4C[C@@H](NCCN)CC[C@]4(C)C3CC[C@@]21C (stereo partly drawn) [Compound 1431]
- % Reduction in FBG (Db/db (Lepr^db) mouse [1]): 55%
- Reduction of FBG levels compared to saline control (in words) (Db/db (Lepr^db) mouse [1]): significant reduction
- Weight loss (in words) (Db/db (Lepr^db) mouse [3]): weight loss similar to 1436
- % Change in Body Weight (Db/db (Lepr^db) mouse [3]): −7%
- % Reduction in OGTT Above Baseline AUC (Db/db (Lepr^db) mouse [4]): 47%
- Reduction in ABAUC compared to saline control (in words) (Db/db (Lepr^db) mouse [4]): significant reduction

SMILES: CC(C)[C@@H](CC[C@@H](C)C1CCC2C3C(CC[C@@]21C)[C@@]1(C)CCC(=O)C[C@H]1C[C@@H]3O)S(=O)(=O)O (stereo partly drawn) [Compound 2347]
- inhibition at 5 µM [6]: 27%

SMILES: CC(C)CCC[C@@H](C)[C@H]1CCC2C3CC[C@H]4C[C@@H](NCCCNCCCCNCCCN)CC[C@]4(C)C3CC[C@@]21C (stereo partly drawn) [Compound 1303]
- inhibition at 200 µM (full length TCPTP): 83%

SMILES: CC(C)[C@@H](CC[C@@H](C)[C@H]1CCC2C3C(CC[C@@]21C)[C@@]1(C)CCC(O)C[C@H]1C[C@H]3O)OS(=O)(=O)O (stereo partly drawn) [Compound 2459]
- inhibition at 5 µM [6]: 17%

SMILES: COC(=O)CC[C@@H](C)[C@H]1CCC2C3C(CC[C@@]21C)[C@@]1(C)CC[C@H](NCCCNCCCCN)C[C@@H]1C[C@H]3O (stereo partly drawn) [Compound 1320]
- inhibition at 200 µM (full length TCPTP): 0%

SMILES: CC(C)[C@H](OS(=O)(=O)O)[C@@H](C)[C@H]1CCC2C3C(CC[C@@]21C)[C@@]1(C)CC[C@H](NCCCNCCCCNCCCN)C[C@@H]1C[C@H]3O (stereo partly drawn) [Compound 1814]
- % Reduction in FBG (Db/db (Lepr^db) mouse [1]): 46%
- Reduction of FBG levels compared to saline control (in words) (Db/db (Lepr^db) mouse [1]): significant reduction
- % Reduction in OGTT Above Baseline AUC (Db/db (Lepr^db) mouse [4]): 60%
- Reduction in ABAUC compared to saline control (in words) (Db/db (Lepr^db) mouse [4]): significant reduction

SMILES: CC(C)[C@@H](CC[C@@H](C)[C@H]1CCC2C3C(CC[C@@]21C)[C@@]1(C)CC[C@H](NCCCNCCCCNCCCN)C[C@@H]1C[C@H]3O)OS(=O)(=O)O (stereo partly drawn) [Compound 1873]
- % Reduction in FBG (Db/db (Lepr^db) mouse [1]): 41%
- Reduction of FBG levels compared to saline control (in words) (Db/db (Lepr^db) mouse [1]): significant reduction
- Weight loss (in words) (Db/db (Lepr^db) mouse [3]): do not produce weight loss
- % Change in Body Weight (Db/db (Lepr^db) mouse [3]): 4%
- % Reduction in OGTT Above Baseline AUC (Db/db (Lepr^db) mouse [4]): 47%
- Reduction in ABAUC compared to saline control (in words) (Db/db (Lepr^db) mouse [4]): significant reduction
- Response in glucose tolerance test vs saline treated controls (FIG. 3 legend) (Db/db (Lepr^db) mouse [4]): respond significantly faster

SMILES: CC(C)CCC[C@@H](C)[C@H]1CCC2C3C(CC[C@@]21C)[C@@]1(C)CC[C@H](NCCCNCCCCN)C[C@@H]1C[C@H]3O (stereo partly drawn) [Compound 1371]
- inhibition at 200 µM (full length TCPTP): 0%

SMILES: CC(C)[C@@H](CC[C@@H](C)[C@H]1CCC2C3C(CC[C@@]21C)[C@@]1(C)CC[C@H](NCCCNCCCCNCCCN)C[C@H]1C[C@H]3O)OS(=O)(=O)O (stereo partly drawn) [Compound 1701]
- % Reduction in FBG (Db/db (Lepr^db) mouse [1]): 40%
- Reduction of FBG levels compared to saline control (in words) (Db/db (Lepr^db) mouse [1]): significant reduction
- Weight loss (in words) (Db/db (Lepr^db) mouse [3]): do not produce weight loss
- % Change in Body Weight (Db/db (Lepr^db) mouse [3]): 3%
- % Reduction in OGTT Above Baseline AUC (Db/db (Lepr^db) mouse [4]): 49%
- Reduction in ABAUC compared to saline control (in words) (Db/db (Lepr^db) mouse [4]): significant reduction
- Response in glucose tolerance test vs saline treated controls (FIG. 3 legend) (Db/db (Lepr^db) mouse [4]): respond significantly faster
